Laboratory results published in US7612036B2, “Peptoid compounds” (University of Wollongong, priority 2001, dated 2009).
≈ marks a conversion by molar mass, not a printed value.

system: not given; experiment: not given; details: not given

| Compound | melting point [°C] |
| --- | --- |
| C=CC[C@H](NC(=O)[C@H](CCCCN)NC(=O)Cc1cn(CC=C)c2ccccc12)C(=O)OC | 103 to 106 |

system: Staphylococcus aureus (ATCC 6538P); experiment: Antibacterial screen (MIC, 96 well microtitre broth dilution) against S. aureus; type: cell-based; details: 37° C. for 18 hours, highest dilution of compound that prevented bacterial growth
Procedure: General Methods for Antibacterial Screens
• SA: Staphylococcus aureus • PA: Pseudomonas aeruginosa • KP: Klebsiella pneumoniae • SP: Streptococcus pneumoniae Bacterial Strains Used: • Staphylococcus aureus (ATCC 6538P) • Pseudonmonas aeruginosa (ATCC 27853) • Klebsiella pneumoniae (IP103623) • Streptococcus pneumoniae (IP53146) Culture Media
Mueller-Hinton Broth Medium (MHB): MHB (Oxoid CM405) was prepared with final concentrations of 1 μg/mL MgCl2 and 2 μg/mL CaCl2. Culture medium was pre-warmed for approximately 2-3 hours at 37° C. before use.
From thawed cryovials, P. aeruginosa, K. pneumoniae and S. aureus were streaked onto Mueller Hinton Agar (MHA), and S. pneumoniae was streaked onto Blood Agar (BA), and plates were incubated overnight at 37° C. For each bacterial strain, 10 cryovials were prepared by looping several colonies into 0.5 mL of 20% glycerol solution. The cryovials were immediately stored at −140° C.
A cryovial was removed from −140° C. storage and thawed at room temperature. An MHA plate was streaked with a loopful of bacterial suspension and incubated overnight at 37° C. to create a parent plate (P1). A daughter plate (D1) was streaked from the parent plate and incubated overnight at 37° C. The parent plate was stored at 4° C. A loop of colony from the daughter plate was used to inoculate a 125 mL flask containing 20 mL of Mueller Hinton Broth (MHB) containing 25 μg/mL CaCl2.2H2O and 12.5 μ/mL MgCl2.6H2O. The flask was shaken at 260 rpm for 18 hours at 37° C. on an orbital incubator shaker. The parent plate (P1) was reused within 9 days to generate another daughter plate (D2), which, in turn, was used to inoculate a broth culture. Parent plates were used twice (to generate D1 and D2 plates) before a new one was prepared from the previously thawed cryovial. The second parent plate (P2) was used to generate two additional daughter plates using the procedure outlined above before being discarded. Cryovials were used twice to prepare parent plates (P1 and P2) before being discarded.
Prepare a 1/10 dilution of Seed Cultures by adding 250 μl of the cultures to 2,250 μl of MHB in a disposable cuvette. Read OD650 and multiply OD650 by a factor of 10 to calculate the optical density of the undiluted culture. Calculate the required dilution factor by dividing the observed OD650 by the standard OD650 for each strain (previously determined in assay optimisation studies).
Prepare sufficient volumes of the final inoculum cultures in pre-warmed MHB (37° C.) by diluting the standardised cultures to the required final concentration. The final dilutions used for each of the bacterial strains were as follows: • K. pneumoniae—10^6 dilution; • P. aeruginosa—10^6 dilution; • S. aureus—10^8 dilution; • S. pneumoniae—10^4 dilution. Assay Procedure (for 96 well Microtiter Plates)
Add 50 microliters of liquid medium to each well of a 96 well microtitre plate. Dissolve test samples in liquid medium. Add 50 microliters of test sample in triplicate to the top row of the microtitre plate, and include a vancomycin control set. Also include a compound negative control well set. Allow inoculated culture medium to incubate at 37° C. for 30 minutes, shaking at 130 rpm. Using a multichannel pipette, mix the contents of the first row and transfer 50 microliters of mixed broth solutions to the next row, change tips and repeat until the last row contains diluted compound or control and discard 50 microliters from the last row. Each well should now contain 50 microliters of diluted compound or negative control medium. Using a multistepper pipette add 50 microliters of inoculum to each well of the plate, save for one row containing the compound negative control, to this row add 50 microliters of liquid broth. Incubate plates at 37° C. for 18 hours, shaking at 100 rpm in an environment of approximately 90% relative humidity. Results were recorded as the highest dilution of compound that prevented bacterial growth (MIC).

| Compound | MIC [mg/L] |
| --- | --- |
| 6-Acetamido-8,11-diaza-9-(3-guanidinopropyl)-12-methoxycarbonyl-7,10-dioxo-[12](3,6)-1H-carbazolophane HCl (9R,12S) [Example 38] | 32 |
| 6-Acetamido-8,11-diaza-9-(3-guanidinopropyl)-12-methoxycarbonyl-7,10-dioxo-[12](3,6)-1H-carbazolophane HCl (9S,12S) [Example 36] | 32 |
| 6-Acetamido-8,11-diaza-14-ene-9-(3-guanidinopropyl)-12-methoxycarbonyl-7,10-dioxo-[12](3,6)-1H-carbazolophane HCl (9R,12S) [Example 37] | 64 |
| 6-Acetamido-9-(4-aminobutyl)-8,11-diaza-1-tert-butoxycarbonyl-14-ene-12-methoxycarbonyl-7,10-dioxo-[12](3,6)-1H-carbazolophane HCl (9S,12S) [Example 39A] | 32 |
| 6-Acetamido-9-(4-aminobutyl)-8,11-diaza-12-methoxycarbonyl-7,10-dioxo-[12](3,6)-1H-carbazolophane HCl (9R,12S) [Example 42] | 64 |
| 6-Acetamido-9-(4-aminobutyl)-8,11-diaza-12-methoxycarbonyl-7,10-dioxo-[12](3,6)-1H-carbazolophane HCl (9S,12S) [Example 40] | 64 |
| COC(=O)C1CC=CCc2cc3ccccc3c(c2OC)-c2c(OC)c(cc3ccccc23)CC(NC(C)=O)C(=O)NC(CCCCN)C(=O)N1.Cl (single isomer, unassigned) [15 (one isomer)] | 8 |
| CCCc1ccc2[nH]c3ccc(CC(NC(C)=O)C(=O)N[C@H](CCCCN)C(=O)N[C@@H](CCC)C(=O)OC)cc3c2c1.Cl (single isomer, unassigned) [44 (another isomer)] | 64 |
| CCCc1ccc2[nH]c3ccc(CC(NC(C)=O)C(=O)N[C@H](CCCCN)C(=O)N[C@@H](CCC)C(=O)OC)cc3c2c1.Cl (single isomer, unassigned) [44 (one isomer)] | 32 |
| C=CCc1cc2ccccc2c(-c2c(OC)c(CC(NC(C)=O)C(=O)N[C@H](CCCCNC(=O)OC(C)(C)C)C(=O)N[C@@H](CC=C)C(=O)OCc3ccccc3)cc3ccccc23)c1OC (stereo partly drawn) [Example 13A, benzyl (aR/S,2S,5R)-8-acetamido-2-allyl-9-{3-[3′-allyl-2,2′-dimethoxy-1,1′-binaphthyl]}-3,6-diaza-5-(4-{[(tert-butoxy)carbonyl]amino}butyl)-4,7-dioxononanoate] | 4 (≈ 4.45 µM) |
| COC(=O)C1CCCCc2cc3ccccc3c(c2OC)-c2c(OC)c(cc3ccccc23)CC(NC(C)=O)C(=O)NC(CCCCN)C(=O)N1.Cl [Example 15A, (aR/S,7R,10S)-4-acetamido-7-(4-aminobutyl)-6,9-diaza-10-methoxycarbonyl-1(1,3),2(1,3)-di(2-methoxynaphthalena)-5,8-dioxocyclotetradecaphane hydrochloride] | 16 |
| C=CCc1cc2ccccc2c(-c2c(OC)c(CC(NC(C)=O)C(=O)N[C@H](CCCNC(=N)N)C(=O)N[C@@H](CC=C)C(=O)OC)cc3ccccc23)c1OC.Cl (stereo partly drawn) [Example 19A, methyl (aR/S,2S,5R)-8-acetamido-2-allyl-9-[3-(3′-allyl-2,2′-dimethoxy-1,1′-binaphthyl)]-3,6-diaza-5-(3-guanidinopropyl)-4,7-dioxononanoate hydrochloride] | 4 |
| COC(=O)[C@@H]1CC=CCOc2ccc3ccccc3c2-c2c(ccc3ccccc23)OCC(=O)N[C@H](CCCCNC(=N)N)C(=O)N1.Cl [Example 103, (aR,S,7R,10S)-6,9-diaza-3,15-dioxa-5,8-dioxo-7-(4-guanidinobutyl)-10-methoxycarbonyl-1(1,2),2(1,2)-dinaphthalenacyclopentadecaphane-12-ene hydrochloride] | 8 |
| C=CCOc1ccc2ccccc2c1-c1c(OCCCC(=O)N[C@H](CCCCNC(=N)N)C(=O)N[C@@H](CC=C)C(=O)OC)ccc2ccccc12.Cl [Example 111, methyl (aS/R,2S,5R)-2-allyl-10-(2′-allyloxy-1,1′-binaphth-2-oxy)-3,6-diaza-5-(4-guanidinobutyl)-4,7-dioxodecanoate hydrochloride] | 8 |
| COC(=O)C1CCC=COc2ccc3ccccc3c2-c2c(ccc3ccccc23)OCCCC(=O)NC(CCCCNC(=N)N)C(=O)N1.Cl [Example 113, (aR/S,9R,12S)-8,11-diaza-9-(4-guanidinobutyl)-12-methoxycarbonyl-1(1,2),2(1,2)-dinaphthalena-3,17-dioxa-7,10-dioxoheptadecaphane-15-ene hydrochloride] | 8 |
| (aR/S,7R,10S)-4-acetamido-6,9-diaza-10-benzyloxycarbonyl-7-(4-{[(tert-butoxy)carbonyl]amino}butyl)-1(1,3),2(1,3)-di(2-methoxynaphthalena)-5,8-dioxocyclotetradecaphane-12-ene [Example 15B] | 16 |
| methyl (aR/S,2S,5R)-2-allyl-5-[2-({[(2′-allyloxy-1,1′-binaphthoxymethyl]carbonyl}amino)-3-aza-9-guanidino-4-oxononanoate hydrochloride [Example 101] | 8 |

same assay, conditions: 37° C. for 18 hours, highest dilution of compound that prevented bacterial growth, hydrochloride

| Compound | MIC [mg/L] |
| --- | --- |
| COC(=O)C1CC=CCc2cc3ccccc3c(c2OC)-c2c(OC)c(cc3ccccc23)CC(NC(C)=O)C(=O)NC(CCCNC(=N)N)C(=O)N1.Cl (single isomer, unassigned) [21A (another isomer)] | 64 |
| COC(=O)C1CC=CCc2cc3ccccc3c(c2OC)-c2c(OC)c(cc3ccccc23)CC(NC(C)=O)C(=O)NC(CCCNC(=N)N)C(=O)N1.Cl (single isomer, unassigned) [21A (one isomer)] | 16 |

same assay, conditions: Staphylococcus aureus, ATCC6538P, 37° C. for 18 hours, highest dilution of compound that prevented bacterial growth, read-out: MIC

| Compound | MIC [mg/L] |
| --- | --- |
| C=CCOc1ccc2ccccc2c1-c1c(OCC(=O)N[C@H](CCCCN)C(=O)N[C@@H](CC=C)C(=O)OC)ccc2ccccc12.Cl [Example 97] | 4 |
| C=CCOc1ccc2ccccc2c1-c1c(OCCCC(=O)N[C@H](CCCCN)C(=O)N[C@@H](CC=C)C(=O)OC)ccc2ccccc12.Cl [Example 107, methyl (aS/R,2S,5R)-2-allyl-10-(2′-allyloxy-1,1′-binaphth-2-oxy)-5-(4-aminobutyl)-3,6-diaza-4,7-dioxodecanoate hydrochloride] | 16 |
| COC(=O)[C@@H]1C/C=C/COc2ccc3ccccc3c2-c2c(ccc3ccccc23)OCCCC(=O)N[C@H](CCCCN)C(=O)N1.Cl [Example 109] | 64 |

system: D-Ala-D-lactate terminus of the peptidoglycan; experiment: not given; details: D-Ala-D-lactate terminus versus D-Ala-D-Ala terminus; cited from earlier work

| Compound | decrease in affinity |
| --- | --- |
| CN[C@H](CC(C)C)C(=O)N[C@H]1C(=O)N[C@@H](CC(N)=O)C(=O)N[C@H]2C(=O)N[C@H]3C(=O)N[C@H](C(=O)N[C@H](C(=O)O)c4cc(O)cc(O)c4-c4cc3ccc4O)[C@H](O)c3ccc(c(Cl)c3)Oc3cc2cc(c3O[C@@H]2O[C@H](CO)[C@@H](O)[C@H](O)[C@H]2O[C@H]2C[C@](C)(N)[C@H](O)[C@H](C)O2)Oc2ccc(cc2Cl)[C@H]1O [Vancomycin] | ca. 1000 fold |

system: not given; experiment: not given; details: cited from earlier work

| Compound | toxicity in mice |
| --- | --- |
| Cl.Cl.NCC(O)CC1NC(=O)C(N)Cc2cc(ccc2O)-c2ccc(O)c(c2)C(O)C(C(=O)O)NC1=O (stereo not shown) [Biphenomycin A] | low toxicity |
